Source: US20070178439A1, “Control of es cell self renewal and lineage specification, and medium therefor” (priority 2003, published 2007)
“Also recorded” adds a separate entry of the source.

Tests used:
Format in all cases: cell-based, mouse
Id genes = assay: Gene induction in Oct4-selected ES cells (LightCycler RT-PCR, Northern hybridisation); details: overnight in N2B27, then stimulated 45 minutes
Method: (§1) Oct4GiP ES cells (Ying et al., 2002) were cultured in the presence of puromycin for 4-6 days to eliminate differentiated cells. Purified ES cells were cultured in complete medium plus LIF for 24 hours then washed once with PBS and transferred to N2B27 medium overnight prior to stimulation for 45 min. with 20 ng/ml LIF, 50 ng/ml BMP4, LIF plus BMP4, 10 ng/ml TGF-β1 (all R&D Systems) or 15% FCS. Quantitative RT-PCR was carried out using the LightCycler Instrument (Roche). Data were normalised relative to Oct4 amplification. Primer pairs and reaction conditions are available upon request. Northern hybridizations were carried out on 5 μg aliquots of total RNA.

ES cells = assay: ES cell self-renewal versus differentiation in serum-free N2B27 adherent culture with passaging; details: for ES cell self-renewal with TGF-β superfamily ligand or other factor in place of BMP4: N2B27, in the presence of LIF; for ES cell self-renewal / differentiation: N2B27 serum-free, factor(s) as labelled
Method: (§2) ES cells were maintained without feeder cells. For serum-free culture, ES cells were plated onto gelatin-coated plates in N2B27 medium (Ying and Smith, 2003) supplemented with 10 ng/ml LIF (Sigma) and 10 ng/ml BMP4 or 200 ng/ml GDF6 (R&D Systems). Cells were passaged every 2-4 days using either enzyme-free Cell Dissociation Buffer (Invitrogen) or 0.025% trypsin/1% chicken serum. Dissociated cells were harvested in N2B27 and pelleted. Supernatant was aspirated and the cell pellet resuspended in N2B27 and replated directly. For single cell cloning, a finely drawn Pasteur pipette pre-loaded with N2B27 was used to pick individual cells into 10 μl drops. Drops were then singly transferred to 96-well plates pre-loaded with 150 μl N2B27 per well with LIF or LIF plus BMP4. After 8 days, ES cell colonies were identified and passaged. To produce chimaeras, ES cells were injected into C57Bl/6 blastocysts. Germline transmission was tested by mating male chimaeras with C57Bl/6 females.

Id1 Transfectants = assay: Propagation of single ES cells in serum-free medium (single cell cloning), Id1 transfectants
Excerpt: Under these conditions the transfectants were not overtly different from parental ES cells or empty vector transfectants. In contrast, in serum-free N2B27, Id transfectants whilst remaining LIF-dependent, were liberated from requirement for BMP. These cells proliferated in LIF alone as rapidly and with as little differentiation as parental ES cells in LIF plus BMP. The cultures could be passaged multiple times with no change in undifferentiated morphology or factor dependence. The ES cell phenotype was confirmed by expression of Oct4 and Nanog mRNAs (FIG. 4D). As a rigorous test of the capacity of Id expression to substitute for serum or BMP/GDF, we plated single cells in N2B27.
as §2

[1] = test system: tis11, c-fos, junB, socs3; assay: Induction of known LIF target genes in Oct-selected ES cells (real time RT-PCR); details: 45 min stimulation
Method: as §1

[2] = test system: blastocysts / inner cell masses; assay: Derivation of ES cells from blastocysts in serum free medium; details: ICM dissociated after 4 days of blastocyst culture in LIF only, BMP4 added on replating
Excerpt: We investigated whether the response to BMP may be an adaptation of established ES cells to culture or is manifest during the initial stages of ES cell derivation. We plated blastocysts in N2B27 supplemented with BMP plus LIF. After several days expanded inner cell masses (ICMs) were dissociated and replated in the same culture conditions. […] Therefore we subsequently dissociated the ICM after only 4 days of blastocyst culture in LIF only and added BMP4 on replating. […] These could be passaged and expanded as morphologically undifferentiated ES cells. One line (SF1) was characterised further. Upon withdrawal of LIF and BMP, SF1 ES cells underwent neural differentiation in vitro. Moreover, SF1 cells produced extensively chimaeric mice (FIG. 2F). Twelve chimaeras were all male, indicative of sex conversion by highly contributing XY ES cells (Bradley et al., 1984).
Strain 129 mice were ovariectomised on the third day of pregnancy and embryos in diapause flushed 4 days later (Nichols et al., 1990). Intact blastocysts were plated on gelatin-coated plastic in N2B27 supplemented with LIF (10 ng/ml). After 3-6 days the central mass of each explant was picked, rinsed in PBS and placed in a drop of trypsin for a few minutes. […]

Smad1 = assay: Immunoblot of active serine phosphorylated Smad1 in undifferentiated ES cells; details: 15 min or 1 hour stimulation
Method: (§3) Pre-selected Oct4GiP ES cells were transferred to N2B27 medium overnight prior to stimulation with LIF (20 ng/ml), BMP4 (50 ng/ml) or LIF plus BMP4 for 15 min or 1 hour. Phosphorylated stat3, smad1, erk1/2 and p38 were detected by immunoblotting (Cell Signaling Technology). Cell lysis and immunoprecipitation (Nakashima et al., 1997) employed anti-FLAG (Sigma) or anti-Stat3 (Transduction Labs). Immunostaining was performed as described (Ying et al., 2003)

[3] = test system: p38 and erk mitogen-activated protein kinases; assay: Immunoblot of p38 and erk activation in undifferentiated ES cells
Method: as §3

STAT3 = assay: Immunoblot of STAT3 tyrosine 705 phosphorylation in ES cells
Method: as §3

[4] = Id1 transfectants, single cells, N2B27 serum-free

## fibronectin
Id genes
  Id gene (Id1, Id2, Id3) mRNA induction: induced by foetal calf serum and by fibronectin, although to a lesser extent than by BMP
ES cells; N2B27, in combination with LIF
  Passages over which undifferentiated Oct4-GiP cells could be expanded: at least 10 passages
ES cells
  ES cell self-renewal with TGF-β superfamily ligand or other factor in place of BMP4: more differentiation and slower population expansion than in BMP

## C[S+]([O-])c1ccc(-c2nc(-c3ccncc3)c(-c3ccc(F)cc3)[nH]2)cc1 (stereo not drawn) [SB203580, reference compound]
ES cells; 30 μM, N2B27
  Effect of p38 inhibitor on balance of self-renewal and neural differentiation in LIF only: does not suppress; also recorded: did not alter the balance between self-renewal and neural differentiation
  Effect of p38 inhibitor on self-renewal in LIF plus BMP: does not suppress; also recorded: no noticeable effect
ES cells; N2B27
  Overall cell viability in LIF only: appeared to enhance overall cell viability

## TGF-β1: TGF-β superfamily member, not a BMP receptor ligand
Id genes
  Id gene (Id1, Id2, Id3) mRNA induction: Neither activin (data not shown) nor TGF-β1 induce Id gene expression
ES cells
  ES cell self-renewal with TGF-β superfamily ligand or other factor in place of BMP4: no discernible effect on ES cells

## LIF: gp130 receptor binding cytokine, Leukaemia Inhibitory Factor
ES cells
  ES cell self-renewal / differentiation: reduces but does not eliminate neural differentiation
ES cells; successive passaging in N2B27
  Passages after which number of undifferentiated ES cells began to decline: 2-3 passages
Id1 Transfectants; [4]
  Number of colonies expanded: 16
  Number of colonies formed at day 8: 19
Id1 Transfectants; Id transfectants, N2B27
  Frequency of undifferentiated passageable colony formation from single cells: 10%

## activin
Id genes
  Id gene (Id1, Id2, Id3) mRNA induction: Neither activin (data not shown) nor TGF-β1 induce Id gene expression
ES cells
  ES cell self-renewal with TGF-β superfamily ligand or other factor in place of BMP4: increased viability and/or proliferation but did not suppress differentiation

B1: BMP4: BMP receptor ligand, agonist of the TGF-β superfamily signalling pathway (protein, UniProt P12644 293-408, looked up)
Bone morphogenetic protein 4: SPKHHSQRARKKNKNCRRHSLYVDFSDVGWNDWIVAPPGYQAFYCHGDCPFPLADHLNSTNHAIVQTLVNSVNSSIPKACCVPTELSAISMLYLDEYDKVVLKNYQEMVVEGCGCR
Id genes
  Id gene (Id1, Id2, Id3) mRNA induction: strongly induced
[1]
  Induction of junB and socs3 mRNA: more highly induced by LIF in the presence of BMP
  Induction of tis11 and c-fos mRNA: showed no response to BMP
[2]
  Formation of primary ES cell colonies: primary ES cell colonies did form
ES cells
  ES cell self-renewal / differentiation: differentiation into sheets of flattened epithelial-like cells
Smad1
  Phosphorylation of Smad1: Increased phosphorylation of Smad1
[3]; LIF plus BMP
  Erk activation in response to LIF in presence of BMP: not appreciably inhibited
[3]; undifferentiated ES cells, 15 min or 1 hour stimulation
  Activation of p38 and erk: enhances the basal activation of p38 and, by one hour, of erk
STAT3; BMP alone
  STAT3 activation (phosphorylation of tyrosine 705): does not activate STAT3
STAT3; LIF plus BMP
  STAT3 activation by LIF in presence of BMP: Nor does it increase STAT3 activation by LIF

B2: GDF-6: BMP relative growth and differentiation factor-6 (protein, UniProt Q6KF10 336-455, looked up)
Growth/differentiation factor …: TAFASRHGKRHGKKSRLRCSKKPLHVNFKELGWDDWIIAPLEYEAYHCEGVCDFPLRSHLEPTNHAIIQTLMNSMDPGSTPPSCCVPTKLTPISILYIDAGNNVVYKQYEDMVVESCGCR
Id genes
  Id gene (Id1, Id2, Id3) mRNA induction: strongly induced
ES cells
  ES cell self-renewal with TGF-β superfamily ligand or other factor in place of BMP4: similarly supported ES cell self-renewal
